# Where a name gives a salt, the structure may show the parent alone.
# Assays:
# [1] = system: green kyllinga; assay: Test Example 5: pot test, sodium salt of trifloxysulfuron and chlorthiamid, visual growth inhibition; format: in vivo, Kyllinga brevifolia var. leiolepis; settings: Cyperus brevifolius, 42nd day after application, height 6 to 8 cm, read-out: Growth inhibition rate (%) of green kyllinga, Measured value
# Excerpt: (§1) Measured value of growth inhibition rate(%)(evaluated value by visual observation)=0(equivalent to non-treated area) to 100(complete kill)
# (§2) That is, the measured value of growth inhibition rate (%) was rated to be 0% in a case where the level of the growth inhibition of weeds was the same in the non-treated area and to be 100% in a case where the growth was completed inhibited and the weeds were killed.
# (§3) Upland field soil was put into a 1/1,000,000 ha pot, and tubers of purple nutsedge were planted. When purple nutsedge reached a 13 leaf stage, a predetermined amount of SHIBAGEN DF (tradename) and a predetermined amount of a wettable powder containing dichlobenil as an active ingredient (tradename: Kasoron wettable powder, manufactured by AGRO-KANESHO Co., Ltd.) were diluted with water (corresponding to 2,000 L/ha) containing 0.02 vol % of Kusa-rino (tradename) and applied by foliar application by means of a small sprayer.
# Upland field soil was put into a 1/1,000,000 ha pot, rhizomes of green kyllinga (Kyllinga brevifolia var. leiolepis) were planted.
# [2] = system: green kyllinga; assay: Test Example 6: pot test, sodium salt of trifloxysulfuron and chlorthiamid or dichlobenil, visual growth inhibition; format: in vivo, Kyllinga brevifolia var. leiolepis; settings: Cyperus brevifolius, 42nd day after application, height 10 cm, read-out: Growth inhibition rate (%) of green kyllinga, Measured value; for inhibition at 5000 g/ha: dose 5,000 g/ha
# Excerpt: as §1, §2, §3
# Upland field soil was put into a 1/1,000,000 ha pot, rhizomes of green kyllinga (Kyllinga brevifolia var. leiolepis) were planted. When the height of green kyllinga reached 10 cm, a predetermined amount of Monument water dispersible granules (tradename) and a predetermined amount of chlorthiamid (reagent, manufactured by Wako Pure Chemical Industries, Ltd.) or Kasoron wet powder (tradename) were applied in the same manner as in Test Example 4.
# [3] = system: purple nutsedge; assay: Test Example 1: pot test, foliar application of flazasulfuron and granule application of chlorthiamid, visual growth inhibition; format: in vivo, Cyperus rofundus L.; settings: Cyperus, read-out: Growth inhibition rate (%) of purple nutsedge, Measured value
# Excerpt: When the herbicidal activity in a case where two active ingredients are combined, is larger than the simple sum (the expected activity) of the respective herbicidal activities of the two active ingredients, it is called a synergistic effect. The activity expected by the combination of two active ingredients can be calculated as follows (Colby S. R., “Weed”, vol. 15, p. 20-22, 1967).
# (§4) Upland field soil was put into a 1/1,000,000 ha pot, and tubers of purple nutsedge (Cyperus rofundus L.) were planted. 33 days later, when purple nutsedge reached a 6 to 7 leaf stage, a predetermined amount of water dispersible granules containing flazasulfuron as an active ingredient (tradename: SHIBAGEN DF, manufactured by Ishihara Sangyo Kaisha, Ltd.) was diluted with water (corresponding to 200 L/ha) containing 0.02 vol % of an agricultural adjuvant (tradename: Kusa-rino, manufactured by Nihon Nohyaku Co., Ltd.) and applied by foliar application by means of a small sprayer, and a predetermined amount of granules containing chlorthiamid as an active ingredient (tradename: GF Ben-pole granules, manufactured by Suimitomo Chemical Garden Products Inc.) was applied by granule application.
# as §1, §2
# [4] = system: green kyllinga; assay: Test Example 2: pot test on green kyllinga, visual growth inhibition; format: in vivo, Kyllinga brevifolia var. leiolepis; settings: Cyperus brevifolius, read-out: Growth inhibition rate (%) of green kyllinga, Measured value
# Experimental: as §4, §1, §2
# Upland field soil was put into a 1/1,000,000 ha pot, and rhizomes of green kyllinga (Kyllinga brevifolia var. leiolepis) were planted. 46 days later, when the height of green kyllinga reached 4 to 7 cm, a predetermined amount of SHIBAGEN DF, (tradename) and a predetermined amount of GF Ben-pole (tradename) were applied in the same manner as in Test Example 1.
# [5] = system: purple nutsedge; assay: Test Example 3: pot test, foliar application of herbicidal composition, visual growth inhibition; format: in vivo, Cyperus rofundus L; settings: Cyperus, read-out: Growth inhibition rate (%) of purple nutsedge, Measured value
# Excerpt: as §1, §2
# Upland field soil was put into a 1/1,000,000 ha pot, and tubers of purple nutsedge (Cyperus rofundus L) were planted. 54 days later, when purple nutsedge reached a height of 25 to 30 cm, a predetermined amount of a herbicidal composition was diluted with water (corresponding to 200 L/ha) containing 0.02 vol % of an agricultural adjuvant (tradename: Kusa-rino, manufactured by Nihon Nohyaku Co., Ltd.) and applied by foliar application by means of a small sprayer.
# On the 42nd day after application, the state of growth of the plant was visually observed, and in the same manner as in Test Example 1, the measured growth inhibition rate (%) and the calculated growth inhibition rate (%) obtained by the Colby's formula are shown in Table 3.
# [6] = system: purple nutsedge; assay: Test Example 4: pot test, foliar application of flazasulfuron and dichlobenil wettable powder, visual growth inhibition; format: in vivo; settings: Cyperus
# Excerpt: as §1, §2, §3
# On the 42nd day after application, the state of growth of purple nutsedge was visually observed, and in the same manner as in Test Example 1, the measured growth inhibition rate (%) and the calculated growth inhibition rate (%) obtained by the Colby's formula are shown in Table 4.
# [7] = read-out: Growth inhibition rate (%) of purple nutsedge, Measured value
smiles,measurement,setting,value
"COc1cc(OC)nc(NC(=O)NS(=O)(=O)c2ncccc2OCC(F)(F)F)n1 [Sodium salt of trifloxysulfuron, 1-(4,6-dimethoxypyrimidin-2-yl)-3-[3-(2,2,2-trifluoroethoxy)-2-pyridylsulfonyl]urea]",inhibition at 10 g/ha,[1]; dose 10 g/ha,0%
same,inhibition at 200 g/ha,[1]; dose 200 g/ha,25%
same,inhibition at 45 g/ha,[2]; dose 45 g/ha,0%
"COc1cc(OC)nc(NC(=O)NS(=O)(=O)c2ncccc2C(F)(F)F)n1 [Flazasulfuron, 1-(4,6-dimethoxypyrimidin-2-yl)-3-(3-trifluoromethyl-2-pyridylsulfonyl)urea]",inhibition at 25 g/ha,"[3]; dose 25 g/ha, 36th day after application, 6 to 7 leaf stage",18%
same,inhibition at 50 g/ha,"[3]; dose 50 g/ha, 36th day after application, 6 to 7 leaf stage",73%
same,inhibition at 50 g/ha,"[4]; dose 50 g/ha, 54th day after application, height 4 to 7 cm",80%
same,inhibition at 25 g/ha,"[5]; dose 25 g/ha, 42nd day after application, height 25 to 30 cm",87%
same,inhibition at 50 g/ha,"[5]; dose 50 g/ha, 42nd day after application, height 25 to 30 cm",98%
same,inhibition at 25 g/ha,"[6]; dose 25 g/ha, 42nd day after application, 13 leaf stage, read-out: Growth inhibition rate (%) of Purple nutsedge, Measured value",87%
"NC(=S)c1c(Cl)cccc1Cl [Chlorthiamid, 2,6-dichlorothiobenzamide]",inhibition at 1000 g/ha,[3],35%
same,inhibition at 2000 g/ha,[3],33%
same,inhibition at 4000 g/ha,[3],50%
same,inhibition at 6000 g/ha,[3],69%
same,inhibition at 1000 g/ha,[4],20%
same,inhibition at 5000 g/ha,[4],65%
same,inhibition at 500 g/ha,[5],0%
same,inhibition at 1000 g/ha,[5],0%
same,inhibition at 2000 g/ha,[5],18%
same,inhibition at 4000 g/ha,[5],33%
same,inhibition at 1000 g/ha,"[1]; dose 1,000 g/ha",18%
same,inhibition at 10000 g/ha,"[1]; dose 10,000 g/ha",30%
same,inhibition at 5000 g/ha,[2],58%
"N#Cc1c(Cl)cccc1Cl [Dichlobenil, 2,6-dichlorobenzonitrile]",inhibition at 500 g/ha,[5],10%
same,inhibition at 1000 g/ha,[5],23%
same,inhibition at 2000 g/ha,[5],10%
same,inhibition at 4000 g/ha,[5],33%
same,inhibition at 500 g/ha,[6]; [7],10%
same,inhibition at 4000 g/ha,[6]; [7],33%
same,inhibition at 5000 g/ha,[2],58%
